# Measured values as given in US11643391B2, “Prodrugs and conjugates of dimethyltryptamine” (priority 2021, dated 2023).
# Assays:
# [1] = Stability in SGF without pepsin; format: physicochemical
# physchem = conditions: buffer, pH 6.5
# [2] = Stability in SGF with pepsin; format: physicochemical
# [3] = Stability in Mouse Plasma; format: in vitro ADME
# [4] = background statement, cited from earlier work
# [5] = Table 8, if calculated T½ < 0, T½ reported as 9999 min
smiles,measurement,setting,value
CC(OC(=O)C(C)C)OC(=O)n1cc(CCN(C)C)c2ccccc21 (stereo not shown) [VLS-03-10],Peak Area of MRM: 188.7/144.0 (analyte VLS-03-10 Parent),[1]; 0 min,5.29E+03
same,Peak Area of MRM: 188.7/144.0 (analyte VLS-03-10 Parent),[1]; 30 min,4.98E+03
same,Peak Area of MRM: 188.7/144.0 (analyte VLS-03-10 Parent),[1]; 60 min,4.66E+03
same,Peak Area of MRM: 188.7/144.0 (analyte VLS-03-10 Parent),[1]; 120 min,4.93E+03
same,Peak Area of MRM: 188.7/144.0 (analyte VLS-03-10 Parent),[1]; 240 min,4.61E+03
same,Remaining Percentage,"[1]; Table 8, 0 min",100.00%
same,Remaining Percentage,"[1]; Table 8, 30 min",99.86%
same,Remaining Percentage,"[1]; Table 8, 60 min",104.95%
same,Remaining Percentage,"[1]; Table 8, 120 min",98.41%
same,Remaining Percentage,"[1]; Table 8, 240 min",98.86%
same,half-life,[1]; [5],7010 min
same,Peak Area of MRM: 188.7/144.0 (analyte VLS-03-10 Parent),[1]; VLS-03-10 standard,3.46E+03
same,Peak Area of MRM: 188.7/144.0 (analyte VLS-03-10 Parent),Stability in PBS pH 6.5; 0 min,5.32E+03
same,Peak Area of MRM: 188.7/144.0 (analyte VLS-03-10 Parent),Stability in PBS pH 6.5; 30 min,4.68E+03
same,Peak Area of MRM: 188.7/144.0 (analyte VLS-03-10 Parent),Stability in PBS pH 6.5; 60 min,5.00E+03
same,Peak Area of MRM: 188.7/144.0 (analyte VLS-03-10 Parent),Stability in PBS pH 6.5; 120 min,4.72E+03
same,Peak Area of MRM: 188.7/144.0 (analyte VLS-03-10 Parent),Stability in PBS pH 6.5; 240 min,4.95E+03
same,Remaining Percentage,"Stability in PBS pH 6.5; Table 8, 0 min",100.00%
same,Remaining Percentage,"Stability in PBS pH 6.5; Table 8, 30 min",92.62%
same,Remaining Percentage,"Stability in PBS pH 6.5; Table 8, 60 min",100.03%
same,Remaining Percentage,"Stability in PBS pH 6.5; Table 8, 120 min",92.63%
same,Remaining Percentage,"Stability in PBS pH 6.5; Table 8, 240 min",97.66%
same,Peak Area of MRM: 188.7/144.0 (analyte VLS-03-10 Parent),Stability in PBS pH 6.5; VLS-03-10 standard,4.34E+03
same,half-life,physchem,13.8 days
same,Peak Area of MRM: 188.7/144.0 (analyte VLS-03-10 Parent),[2]; 0 min,5.13E+03
same,Peak Area of MRM: 188.7/144.0 (analyte VLS-03-10 Parent),[2]; 30 min,5.10E+03
same,Peak Area of MRM: 188.7/144.0 (analyte VLS-03-10 Parent),[2]; 60 min,5.25E+03
same,Peak Area of MRM: 188.7/144.0 (analyte VLS-03-10 Parent),[2]; 120 min,5.32E+03
same,Peak Area of MRM: 188.7/144.0 (analyte VLS-03-10 Parent),[2]; 240 min,5.28E+03
same,Remaining Percentage,"[2]; Table 8, 0 min",100.00%
same,Remaining Percentage,"[2]; Table 8, 30 min",96.82%
same,Remaining Percentage,"[2]; Table 8, 60 min",93.09%
same,Remaining Percentage,"[2]; Table 8, 120 min",91.42%
same,Remaining Percentage,"[2]; Table 8, 240 min",89.32%
same,half-life,[2]; [5],1600 min
same,Peak Area of MRM: 188.7/144.0 (analyte VLS-03-10 Parent),[2]; VLS-03-10 standard,4.05E+03
same,Remaining Percentage,"[3]; Table 9, 0 min",100.00%
same,Remaining Percentage,"[3]; Table 9, 15 min",0.00%
same,Remaining Percentage,"[3]; Table 9, 30 min",0.00%
same,Remaining Percentage,"[3]; Table 9, 60 min",0.00%
same,Remaining Percentage,"[3]; Table 9, 120 min",0.00%
"CN(C)CCc1c[nH]c2ccccc12 [DMT, N,N-dimethyltryptamine]",estimated half-life,[4]; at higher doses,less than fifteen minutes
same,oral bioavailability,[4]; converted by monoamine oxidases,poor oral bioavailability
"CC[C@H]1OC(=O)[C@H](C)[C@@H](O[C@H]2C[C@@](C)(OC)[C@@H](O)[C@H](C)O2)[C@H](C)[C@@H](O[C@@H]2O[C@H](C)C[C@H](N(C)C)[C@H]2O)[C@](C)(O)C[C@@H](C)C(=O)[C@H](C)[C@@H](O)[C@]1(C)O [Erythromycin, reference compound]",Remaining Percentage,"[1]; Table 8, 0 min",100.00%
same,Remaining Percentage,"[1]; Table 8, 30 min",52.67%
same,Remaining Percentage,"[1]; Table 8, 60 min",28.46%
same,Remaining Percentage,"[1]; Table 8, 120 min",8.27%
same,Remaining Percentage,"[1]; Table 8, 240 min",1.47%
same,half-life,[1]; [5],39.5 min
same,Remaining Percentage,"[1]; Table 10, 0 min",100.00%
same,Remaining Percentage,"[1]; Table 10, 30 min",59.45%
same,Remaining Percentage,"[1]; Table 10, 60 min",33.60%
same,Remaining Percentage,"[1]; Table 10, 120 min",10.27%
same,Remaining Percentage,"[1]; Table 10, 240 min",1.20%
same,half-life,"[1]; Table 10, read-out: T½",37.4 min
same,Remaining Percentage,"[2]; Table 8, 0 min",100.00%
same,Remaining Percentage,"[2]; Table 8, 30 min",56.55%
same,Remaining Percentage,"[2]; Table 8, 60 min",37.33%
same,Remaining Percentage,"[2]; Table 8, 120 min",14.06%
same,Remaining Percentage,"[2]; Table 8, 240 min",2.14%
same,half-life,[2]; [5],43.6 min
same,Remaining Percentage,"[2]; Table 10, 0 min",100.00%
same,Remaining Percentage,"[2]; Table 10, 30 min",56.55%
same,Remaining Percentage,"[2]; Table 10, 60 min",34.88%
same,Remaining Percentage,"[2]; Table 10, 120 min",11.22%
same,Remaining Percentage,"[2]; Table 10, 240 min",1.60%
same,half-life,"[2]; Table 10, read-out: T½",40.3 min
C[N+](C)(CCc1c[nH]c2ccccc12)COP(=O)([O-])O [VLS-02-23],T½,[1]; Table 10,6.94375 days
same,Remaining Percentage,"[1]; Table 10, 0 min",100.00%
same,Remaining Percentage,"[1]; Table 10, 30 min",98.76%
same,Remaining Percentage,"[1]; Table 10, 60 min",107.08%
same,Remaining Percentage,"[1]; Table 10, 120 min",101.90%
same,Remaining Percentage,"[1]; Table 10, 240 min",108.80%
same,T½,Stability in PBS pH 6.5; Table 10,6.94375 days
same,Remaining Percentage,"Stability in PBS pH 6.5; Table 10, 0 min",100.00%
same,Remaining Percentage,"Stability in PBS pH 6.5; Table 10, 30 min",104.71%
same,Remaining Percentage,"Stability in PBS pH 6.5; Table 10, 60 min",106.37%
same,Remaining Percentage,"Stability in PBS pH 6.5; Table 10, 120 min",107.29%
same,Remaining Percentage,"Stability in PBS pH 6.5; Table 10, 240 min",117.35%
same,Remaining Percentage,"[2]; Table 10, 0 min",100.00%
same,Remaining Percentage,"[2]; Table 10, 30 min",96.70%
same,Remaining Percentage,"[2]; Table 10, 60 min",106.43%
same,Remaining Percentage,"[2]; Table 10, 120 min",102.36%
same,Remaining Percentage,"[2]; Table 10, 240 min",96.82%
same,half-life,"[2]; Table 10, read-out: T½",6230 min
same,Remaining Percentage,"[3]; Table 11, 0 min",100.00%
same,Remaining Percentage,"[3]; Table 11, 15 min",114.24%
same,Remaining Percentage,"[3]; Table 11, 30 min",110.21%
same,Remaining Percentage,"[3]; Table 11, 60 min",109.95%
same,Remaining Percentage,"[3]; Table 11, 120 min",91.16%
same,half-life,"[3]; mouse, plasma, Table 11, read-out: T½",568 min
